Like-named read-outs stand apart in the source and are kept apart here.
Key:
Assay type in all cases: biochemical
rat nNOS = biological target: T1, rat nNOS (Rattus norvegicus, UniProt P29476); test: NOS enzyme inhibitory assay (hemoglobin capture), nNOS; settings: for IC50: rat nNOS, 10 μM L-arginine
T1 construct: made in house; host or cells: E. coli (plasmid pCWnNOS)
Outline: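 Recombinant rat nNOS expressed in E. coli and purified by calmodulin-Sepharose and 2′,5′-ADP-Sepharose chromatography. NO production followed by hemoglobin capture; inhibition expressed as Ki, selectivity as ratio of Ki values.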

murine iNOS = biological target: T2, murine iNOS (Mus musculus, UniProt P29477); test: NOS enzyme inhibitory assay (hemoglobin capture), iNOS; settings: for IC50: murine iNOS, 10 μM L-arginine
T2 construct: made in house; host or cells: E. coli (plasmid pCWiNOS)
Outline: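 Recombinant murine iNOS, overexpressed in E. coli from plasmid pCWiNOS (induced with 1 mM IPTG) and purified on a 2′,5′-ADP-Sepharose 4B column with elution by 10 mM 2′(3′)-AMP, 10 μM BH4 and 0.3 M NaCl, was used to test inhibitors. Nitric oxide production was followed with the hemoglobin capture assay, and IC50 values were determined.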

bovine eNOS = biological target: T3, bovine eNOS (Bos taurus, UniProt P29473); test: NOS enzyme inhibitory assay (hemoglobin capture), eNOS; settings: for IC50: bovine eNOS, 10 μM L-arginine, * = no inhibition observed up to the concentration listed
T3 construct: made in house; host or cells: E. coli (plasmid Bov-eNOSpCW)

[1] = Table 1b, ratio of Ki values eNOS/nNOS
[2] = Table 1b, ratio of Ki values iNOS/nNOS
[3] = Table 1a, apparent Ki calculated from IC50, Km […], read-out: calc. Ki nNOS
[4] = Table 1a, apparent Ki calculated from IC50, Km […], read-out: calc. Ki iNOS
[5] = Table 1a, apparent Ki calculated from IC50, Km 1.7 μM, read-out: calc. Ki eNOS

Cc1cc(N)nc(C[C@H]2CNC[C@H]2NCCNCc2ccc(Cl)cc2Cl)c1.Cl.Cl.Cl.Cl (racemic) [Compound P-61]
Selectivity n/e (rat nNOS; [1]): 272
Selectivity n/i (rat nNOS; [2]): 70
Ki (rat nNOS; Table 1b, read-out: Ki nNOS): 0.11 µM
Ki (murine iNOS; Table 1b, read-out: Ki iNOS): 7.7 µM
Ki (bovine eNOS; Table 1b, read-out: Ki eNOS): 29.9 µM

Cc1cc(N)nc(C[C@H]2CNC[C@H]2NC[C@H](C)NCc2ccc(Cl)cc2)c1.Cl.Cl.Cl.Cl (racemic) [Compound P-63]
Selectivity n/e (rat nNOS; [1]): 294.4
Selectivity n/i (rat nNOS; [2]): 90
Ki (rat nNOS; Table 1b, read-out: Ki nNOS): 0.136 µM
Ki (murine iNOS; Table 1b, read-out: Ki iNOS): 12.2 µM
Ki (bovine eNOS; Table 1b, read-out: Ki eNOS): 40 µM

Cc1cc(N)nc(CC2CNCC2NCCNCc2ccc(Cl)c(Cl)c2)c1.Cl.Cl.Cl.Cl (racemic) [Compound P-65]
Selectivity n/e (rat nNOS; [1]): 153
Selectivity n/i (rat nNOS; [2]): 57.4
Ki (rat nNOS; Table 1b, read-out: Ki nNOS): 0.414 µM
Ki (murine iNOS; Table 1b, read-out: Ki iNOS): 23.8 µM
Ki (bovine eNOS; Table 1b, read-out: Ki eNOS): 63.2 µM

Cc1cc(N)nc(C[C@H]2CNC[C@@H]2NCCNCc2ccc(Cl)cc2Cl)c1.Cl.Cl.Cl.Cl (racemic) [Compound P-66]
Selectivity n/e (rat nNOS; [1]): 158
Selectivity n/i (rat nNOS; [2]): 91.6
Ki (rat nNOS; Table 1b, read-out: Ki nNOS): 0.483 µM
Ki (murine iNOS; Table 1b, read-out: Ki iNOS): 44.2 µM
Ki (bovine eNOS; Table 1b, read-out: Ki eNOS): 76.1 µM

Cc1cc(N)nc(CC2CNCC2NCC(C)NCc2ccc(Cl)cc2)c1.Cl.Cl.Cl.Cl (racemic) [Compound P-68]
Selectivity n/e (rat nNOS; [1]): 28
Selectivity n/i (rat nNOS; [2]): 34.7
Ki (rat nNOS; Table 1b, read-out: Ki nNOS): 0.589 µM
Ki (murine iNOS; Table 1b, read-out: Ki iNOS): 20.5 µM
Ki (bovine eNOS; Table 1b, read-out: Ki eNOS): 16.5 µM

Cc1cc(N)nc(CC2CNCC2NCCNCCc2ccc(F)cc2)c1.Cl.Cl.Cl.Cl (racemic) [Compound P-70]
Selectivity n/e (rat nNOS; [1]): 656.2
Selectivity n/i (rat nNOS; [2]): 170.3
Ki (rat nNOS; Table 1b, read-out: Ki nNOS): 0.027 µM
Ki (murine iNOS; Table 1b, read-out: Ki iNOS): 4.6 µM
Ki (bovine eNOS; Table 1b, read-out: Ki eNOS): 17.7 µM

Cc1cc(N)nc(C[C@H]2CNC[C@@H]2NCCNCCc2ccc(F)cc2)c1.Cl.Cl.Cl.Cl (racemic) [Compound P-72]
Selectivity n/e (rat nNOS; [1]): 370.5
Selectivity n/i (rat nNOS; [2]): 189.9
Ki (rat nNOS; Table 1b, read-out: Ki nNOS): 0.119 µM
Ki (murine iNOS; Table 1b, read-out: Ki iNOS): 22.6 µM
Ki (bovine eNOS; Table 1b, read-out: Ki eNOS): 44.1 µM

Cc1cc(N)nc(CC2CNCC2N(C)CCN(C)CCc2cccc(F)c2)c1.Cl.Cl.Cl.Cl (racemic) [Compound P-74]
Selectivity n/e (rat nNOS; [1]): 40.27
Selectivity n/i (rat nNOS; [2]): 46.7
Ki (rat nNOS; Table 1b, read-out: Ki nNOS): 1.21 µM
Ki (murine iNOS; Table 1b, read-out: Ki iNOS): 56.6 µM
Ki (bovine eNOS; Table 1b, read-out: Ki eNOS): 48.9 µM

Cc1cc(N)nc(C[C@H]2CNC[C@H]2N(C)CCNCCc2cccc(F)c2)c1.Cl.Cl.Cl.Cl (racemic) [Compound P-75]
Selectivity n/e (rat nNOS; [1]): 283.5
Selectivity n/i (rat nNOS; [2]): 117.3
Ki (rat nNOS; Table 1b, read-out: Ki nNOS): 0.326 µM
Ki (murine iNOS; Table 1b, read-out: Ki iNOS): 38.2 µM
Ki (bovine eNOS; Table 1b, read-out: Ki eNOS): 92.4 µM

Cc1cc(N)nc(C[C@H]2CNC[C@H]2NC(=O)CNCCc2cccc(F)c2)c1.Cl.Cl.Cl (racemic) [Compound P-77, (±)-N-{cis-4-[(6-amino-4-methylpyridin-2-yl)methyl]pyrrolidin-3-yl}-2-(3-fluorophenethylamino)acetamide trihydrochloride]
Selectivity n/e (rat nNOS; [1]): 500
Selectivity n/i (rat nNOS; [2]): 26.4
Ki (rat nNOS; Table 1b, read-out: Ki nNOS): 0.053 µM
Ki (murine iNOS; Table 1b, read-out: Ki iNOS): 1.4 µM
Ki (bovine eNOS; Table 1b, read-out: Ki eNOS): 26 µM

Cc1cc(N)nc(C[C@@H]2CNC[C@@H]2NCCOCCc2cccc(F)c2)c1 (racemic) [Compound P-78, cis-6-{{(±)-4-[2-(3-fluorophenethoxy)ethylamino]pyrrolidin-3-yl}methyl}-4-methylpyridin-2-amine]
Selectivity n/e (rat nNOS; [1]): 50
Selectivity n/i (rat nNOS; [2]): 3.5
Ki (rat nNOS; Table 1b, read-out: Ki nNOS): 0.4 µM
Ki (murine iNOS; Table 1b, read-out: Ki iNOS): 1.4 µM
Ki (bovine eNOS; Table 1b, read-out: Ki eNOS): 20 µM

Cc1cc(N)nc(C[C@H]2CNC[C@H]2OCCNC(=O)Cc2cccc(F)c2)c1.Cl.Cl (racemic) [Compound P-80, (±)-N-{2-{cis-4-[(6-amino-4-methylpyridin-2-yl)methyl]pyrrolidin-3-yloxy}ethyl}-2-(3-fluorophenyl)acetamide dihydrochloride]
Selectivity n/e (rat nNOS; [1]): 17
Selectivity n/i (rat nNOS; [2]): 3.8
Ki (rat nNOS; Table 1b, read-out: Ki nNOS): 5 µM
Ki (murine iNOS; Table 1b, read-out: Ki iNOS): 19 µM
Ki (bovine eNOS; Table 1b, read-out: Ki eNOS): 85 µM

Cc1cc(N)nc(C[C@H]2CNC[C@@H]2OCCN)c1.Cl.Cl.Cl (racemic) [Compound P-81]
Selectivity n/e (rat nNOS; [1]): 0.3
Selectivity n/i (rat nNOS; [2]): 1.7
Ki (rat nNOS; Table 1b, read-out: Ki nNOS): 5 µM
Ki (murine iNOS; Table 1b, read-out: Ki iNOS): 8.5 µM
Ki (bovine eNOS; Table 1b, read-out: Ki eNOS): 1.5 µM

Cl.Cl.Cl.Cl.Nc1nc(CC2CNCC2NCCNCc2ccc(Cl)cc2)cs1 (racemic) [Compound P-82]
Selectivity n/e (rat nNOS; [1]): 1.8
Selectivity n/i (rat nNOS; [2]): 2
Ki (rat nNOS; Table 1b, read-out: Ki nNOS): 1.7 µM
Ki (murine iNOS; Table 1b, read-out: Ki iNOS): 3.4 µM
Ki (bovine eNOS; Table 1b, read-out: Ki eNOS): 3 µM

Nc1cccc(CC2CNCC2NC2CCN(Cc3ccccc3)C2)n1 (stereo not drawn) [Compound P-36]
Selectivity n/e (rat nNOS; Table 1a, Ki(eNOS)/Ki(nNOS)): 32.20
Selectivity n/i (rat nNOS; Table 1a, Ki(iNOS)/Ki(nNOS)): 66.39
Ki (rat nNOS; [3]): 3.34 µM
IC50 (rat nNOS; Table 1a): 29 µM
Ki (murine iNOS; [4]): 222 µM
IC50 (murine iNOS; Table 1a): 489 µM
Ki (bovine eNOS; [5]): 108 µM
IC50 (bovine eNOS; Table 1a): 740 µM

Nc1cccc(CC2CNCC2NC2CCN(Cc3ccccc3)C2)n1 (stereo not drawn) [Compound P-37]
Selectivity n/e (rat nNOS; Table 1a, Ki(eNOS)/Ki(nNOS)): 2.42
Selectivity n/i (rat nNOS; Table 1a, Ki(iNOS)/Ki(nNOS)): 3.05
Ki (rat nNOS; [3]): 75.2 µM
IC50 (rat nNOS; Table 1a): 654 µM
Ki (murine iNOS; [4]): 229 µM
IC50 (murine iNOS; Table 1a): 506 µM
Ki (bovine eNOS; [5]): 182 µM
IC50 (bovine eNOS; Table 1a): 1250 µM

Nc1cccc(CC2CNCC2NC2CCN(Cc3ccccc3)C2)n1 (stereo not drawn) [Compound P-38]
Selectivity n/e (rat nNOS; Table 1a, Ki(eNOS)/Ki(nNOS)): 66.19
Selectivity n/i (rat nNOS; Table 1a, Ki(iNOS)/Ki(nNOS)): 155.05
Ki (rat nNOS; [3]): 2.74 µM
IC50 (rat nNOS; Table 1a): 23.8 µM
Ki (murine iNOS; [4]): 425 µM
IC50 (murine iNOS; Table 1a): 937 µM
Ki (bovine eNOS; [5]): 181 µM
IC50 (bovine eNOS; Table 1a): 1250 µM

Nc1cccc(CC2CNCC2NC2CCN(Cc3ccccc3)C2)n1 (stereo not drawn) [Compound P-39]
Selectivity n/e (rat nNOS; Table 1a, Ki(eNOS)/Ki(nNOS)): 4.10
Selectivity n/i (rat nNOS; Table 1a, Ki(iNOS)/Ki(nNOS)): 14.38
Ki (rat nNOS; [3]): 22.6 µM
IC50 (rat nNOS; Table 1a): 196 µM
Ki (murine iNOS; [4]): 325 µM
IC50 (murine iNOS; Table 1a): 716 µM
Ki (bovine eNOS; [5]): 92.8 µM
IC50 (bovine eNOS; Table 1a): 638 µM

Source: patent US7994326B2 (Northwestern University, priority 2003, dated 2011)
